Results published in patent publication US9475842B2, “Hexadepsipeptide analogues as anticancer compounds” (PIRAMAL ENTERPRISES LIMITED, priority 2012, dated 2016).

What was measured:
[1] = tested on: HCT 116 (Colorectal Cancer); experiment: Monolayer assay (CCK-8 cytotoxicity); format: cell-based, human; details: Homo sapiens, HCT-116; HCT116, Colon; 24 hrs exposure, CCK-8; read-out: IC50
Description: (§1) The assays were designed as in the reference, BMC Cancer, 2010, 10, 610, 1-11; the disclosure of which is incorporated by reference for the teaching of the assay.
(§2) Human tumour cell lines: Panc-1 (Pancreatic Cancer), HCT 116 (Colorectal Cancer), ACHN (Renal Cell Carcinoma), Calu-1 (Lung Carcinoma), MiaPaca2 (Pancreatic Cancer), FADU (Head and Neck Cancer), PC3 (prostate Cancer), G361 (Melanoma), MDA-MB435S (Melanoma), HeLa (Cervical Cancer) were grown in Minimal Essential Media with Eagle's Basal Salts (MEM-EBS) obtained from AMIMED (BioConcept-Switzerland). Tumour cell lines: MDA-MB231 (Breast Cancer), JURKAT (T cell leukaemia), H460 (Small Cell Lung Cancer) were cultured in RPMI 1640 (AMIMED, BioConcept, Switzerland) medium. All tumour cell lines were supplemented with 10% Foetal Bovine Serum (FBS) (GIBCO), 1% Penicillin/Streptomycin (Sigma) and 1% Anti-Anti (GIBCO) and grown in T-175 tissue culture flasks (Nunc). MCF-10A, a non-tumourigenic cell line, was cultured in Mammary Epithelial Basal Medium (MEBM) with all standard additions (Lonza, Catalog. No. CC-3150). All cells were grown in 5% CO2 incubator at 37° C. Cells were passaged at 80-90% confluence. Adherent cells were trypsinised using Trypsin-EDTA (Sigma) and maintained. All cell lines were purchased from ATCC (Rockville, Md., USA).
(§3) Compound of Formula (1a) [described in example 7] was dissolved in DMSO to give a required stock solution of 20 mM. Eight different concentrations of the compound of Formula (1a) were prepared by serial dilution of stock solution finally resulting in a (compared to the test concentration) 200-fold higher concentration. Compound of Formula (1a) was tested at the concentration of 0.0001 μM, 0.001 μM, 0.01 μM, 0.03 μM, 0.1 μM, 0.3 μM, 1 μM and 3 μM respectively. Each concentration was evaluated in triplicate.
(§4) Method for determination of IC50 of the compound of Formula (1a): • a) Different cancer/normal cells were seeded at a density of 3000 cells/200 μL well, in a tissue culture grade 96 well plate and allowed them to recover for 24 hrs in a humidified 5±0.2% CO2 incubator at 37±0.5° C. • b) After 24 hrs, 1 μL of 200× (200 times higher than required concentration is denoted as 200×) compound of Formula (1a), dissolved in DMSO, was added to the above tissue culture plate seeded with cancer/normal cells. The final concentration of DMSO was 0.5% in wells. DMSO was used as a vehicle control. • c) After 24 hrs the plate was removed from CO2 incubator and 5 μL of CCK-8 (Dojindo Molecular Technologies, Inc. USA, catalog, no. CK04-20) per well was added. • d) The plate was then placed at 37° C. for 2 hrs. • e) The absorbance was recorded at 450 nm. • f) The percent cytotoxicity was calculated using the following formula
(§5) The IC50 value was estimated by visual inspection of the concentration-effect curve. For calculation of mean IC50 values over the fourteen cell lines as tested, the geometric mean was selected.
(§6) The assays were designed as described above in example 16.
(§7) The IC50 value was estimated by visual inspection of the concentration-effect curve. For calculation of mean IC50 values over the six cell lines (PC3, MDA MB, HCT116, MCF7, MIAPaCa2, MCF10A) as tested, the geometric mean was selected.

[2] = tested on: MDA-MB231 (Breast Cancer); experiment: Monolayer assay (CCK-8 cytotoxicity); format: cell-based, human; details: Homo sapiens, MDA-MB-231; MDAMB231, Breast; 24 hrs exposure, CCK-8; read-out: IC50
Description: as §1, §2, §3, §4, §5, §6, §7

PC3 (prostate Cancer) = experiment: Monolayer assay (CCK-8 cytotoxicity); format: cell-based, human; details: Homo sapiens; PC3, Prostate; 24 hrs exposure, CCK-8; read-out: IC50
Description: as §1, §2, §3, §4, §5, §6, §7

[3] = tested on: MCF-10A, a non-tumourigenic cell line; experiment: Monolayer assay (CCK-8 cytotoxicity), normal cells; format: cell-based; details: MCF10A, Normal Breast Epithelium, 24 hrs exposure, CCK-8
Description: as §1, §2, §3, §4, §5, §6, §7

Calu-1 (Lung Carcinoma) = experiment: Monolayer assay (CCK-8 cytotoxicity); format: cell-based; details: Homo sapiens, 24 hrs exposure
Description: as §1, §2, §3, §4, §5

[4] = tested on: ACHN (Renal Cell Carcinoma); experiment: Monolayer assay (CCK-8 cytotoxicity); format: cell-based; details: Homo sapiens, 24 hrs exposure
Description: as §1, §2, §3, §4, §5

G361 (Melanoma) = experiment: Monolayer assay (CCK-8 cytotoxicity); format: cell-based; details: Homo sapiens, G-361, 24 hrs exposure
Description: as §1, §2, §3, §4, §5

[5] = tested on: FADU (Head and Neck Cancer); experiment: Monolayer assay (CCK-8 cytotoxicity); format: cell-based; details: Homo sapiens, 24 hrs exposure
Description: as §1, §2, §3, §4, §5

H460 = experiment: Monolayer assay (CCK-8 cytotoxicity); format: cell-based; details: Homo sapiens, NCI-H460, H460, Non Small Cell Lung, 24 hrs exposure
Description: as §1, §2, §3, §4, §5

[6] = tested on: JURKAT (T cell leukaemia); experiment: Monolayer assay (CCK-8 cytotoxicity); format: cell-based; details: Homo sapiens, 24 hrs exposure
Description: as §1, §2, §3, §4, §5

HeLa (Cervical Cancer) = experiment: Monolayer assay (CCK-8 cytotoxicity); format: cell-based; details: Homo sapiens, 24 hrs exposure
Description: as §1, §2, §3, §4, §5

[7] = tested on: Panc-1 (Pancreatic Cancer); experiment: Monolayer assay (CCK-8 cytotoxicity); format: cell-based; details: Homo sapiens, 24 hrs exposure
Description: as §1, §2, §3, §4, §5

MDA-MB435S (Melanoma) = experiment: Monolayer assay (CCK-8 cytotoxicity); format: cell-based; details: Homo sapiens, MDA-MB-435S, MDAMB435S, 24 hrs exposure
Description: as §1, §2, §3, §4, §5

[8] = tested on: MiaPaca2 (Pancreatic Cancer); experiment: Monolayer assay (CCK-8 cytotoxicity); format: cell-based; details: Homo sapiens, MIA PaCa-2, MiaPaca 2, Pancreatic, 24 hrs exposure
Description: as §1
as §2, with “Adherent cells were trypsinised using Trypsin-EDTA (Sigma) and maintained. All cell lines were purchased from ATCC (Rockville, Md., USA).” left out
Compound of Formula (1a) [described in example 7] was dissolved in DMSO to give a required stock solution of 20 mM. […] Each concentration was evaluated in triplicate. […]

CC(C)CC1CCC(O)(C(C)(O)C(=O)NC2C(=O)N3NCCCC3C(=O)N(O)C(C)C(=O)NCC(=O)N3NCCCC3C(=O)N(O)C(C)C(=O)OC2C(C)C)OC1C (stereo not drawn) [Formula (1a), N-(6,18-dihydroxy-22-isopropyl-7,19-dimethyl-5,8,11,17,20,24-hexaoxotetracosa hydrodipyridazino[6,1-f:6′,1′-o][1,4,7,10,13,16]oxapentaazacyclononadecin-23-yl)-2-hydroxy-2-(2-hydroxy-5-isobutyl-6-methyltetrahydro-2H-pyran-2-yl)propanamide]
IC50 [1]: 15.1 ± 2.3 nM | IC50 [2]: 6.1 ± 0.52 nM | IC50 (PC3 (prostate Cancer)): 5.2 ± 0.41 nM | IC50 ([3]; Homo sapiens, MCF-10A, 24 h): 19 nM | IC50 [3]: 19.7 ± 3.1 nM | IC50 (Calu-1 (Lung Carcinoma)): 25.2 ± 3.5 nM | IC50 [4]: 7.1 ± 0.64 nM | IC50 (G361 (Melanoma)): 24.1 ± 4.3 nM | IC50 [5]: 22.4 ± 1.2 nM | IC50 (H460): 9.2 ± 0.76 nM | IC50 [6]: 15.9 ± 2.6 nM | IC50 (HeLa (Cervical Cancer)): 10.1 ± 3.1 nM | IC50 [7]: 1.3 ± 0.32 nM | IC50 (MDA-MB435S (Melanoma)): 2.9 ± 0.48 nM | IC50 [8]: 25.3 ± 4.6 nM
